Experimental data as given in US10654884B2 (Vitae Pharmaceuticals, Inc., priority 2014, dated 2020).

target: T1, human CD73 (Homo sapiens, UniProt P21589); test: Inhibition of 5′-Nucleotidase Activity of CD73 (Assay 1); assay type: biochemical; conditions: Assay 1: IC50, inhibition of 5′-nucleotidase activity of CD73, human CD73 4 ng/ml, 50 μM CMP, 20 min at RT, malachite green readout
T1 construct: purchased R&D Systems 5795-EN-010
T1 sequence (P21589 27-549): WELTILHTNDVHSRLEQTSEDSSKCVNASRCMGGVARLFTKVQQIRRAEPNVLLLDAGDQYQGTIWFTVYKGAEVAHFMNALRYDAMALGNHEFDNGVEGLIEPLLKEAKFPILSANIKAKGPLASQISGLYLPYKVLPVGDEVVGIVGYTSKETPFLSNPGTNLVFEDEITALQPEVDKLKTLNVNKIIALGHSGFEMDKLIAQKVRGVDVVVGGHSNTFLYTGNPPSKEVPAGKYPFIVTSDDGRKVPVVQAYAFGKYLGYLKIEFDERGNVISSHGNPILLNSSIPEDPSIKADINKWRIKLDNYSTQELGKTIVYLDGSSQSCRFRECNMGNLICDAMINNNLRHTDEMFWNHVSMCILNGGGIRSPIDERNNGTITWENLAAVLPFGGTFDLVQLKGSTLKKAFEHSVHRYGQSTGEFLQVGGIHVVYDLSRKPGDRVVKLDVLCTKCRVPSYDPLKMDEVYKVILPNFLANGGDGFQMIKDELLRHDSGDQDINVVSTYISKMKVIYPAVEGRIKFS
Protocol: Inhibition of 5′-Nucleotidase Activity of CD73 (Assay 1)
Compounds of the present invention were tested for the ability to inhibit CD73 enzyme activity. Tested compounds were dissolved in DMSO (50× final concentration), and 3.2 μL of the solutions added to 96-well polystyrene plates. To these wells were added, 100 μL of human CD73 (R&D Systems Cat. No. 5795-EN-010) and 57 μL of cytidine-5′-monophosphate (CMP) solutions in assay buffer (25 mM Tris-HCl, pH 7.4, 0.005% Brij-35) were added to achieve final concentrations in the assay of 4 ng/ml CD73 and 50 μM of CMP. The assay mixture was incubated for 20 min at RT. The reaction was stopped by addition of 40 μL of malachite green reagent which was prepared by mixing together 10 ml 2M H2SO4, 2.5 ml of 15% ammonium molybdate and 0.2 ml of 11% Tween-20. The mixture was agitated vigorously for 10 min at RT, and absorbance at 620 nm was determined on a microplate spectrophotometer. […] The IC50 values were derived using a non-linear 4 parameter logistic model (XLFit software, IDBS) and correspond to the inflection points on dose-response curves.

| Compound | IC50 [µM] |
| --- | --- |
| CCNc1nc(Cl)nc2c1ncn2[C@@H]1O[C@H](CO[C@@](C)(C(=O)OCC)P(=O)(O)OCC)[C@@H](O)[C@H]1O (single isomer, unassigned) [Example 80] | > 1 |
| CCNc1nc(Cl)nc2c1ncn2[C@@H]1O[C@H](CO[C@](C)(C(=O)OCC)P(=O)(O)OCC)[C@@H](O)[C@H]1O (single isomer, unassigned) [Example 80a] | > 1 |

same assay, conditions: human CD73 4 ng/ml, 50 μM CMP, 20 min at RT, malachite green readout; read-out: Assay 1: IC50, inhibition of 5′-nucleotidase activity of CD73

| Compound | IC50 [µM] |
| --- | --- |
| Nc1ncnc2c1ncn2[C@@H]1O[C@H](CO[C@@H](CO)P(=O)(O)O)[C@@H](O)[C@H]1O (single isomer, unassigned) [Example 57] | > 1 |
| Nc1ncnc2c1ncn2[C@@H]1O[C@H](CO[C@H](CO)P(=O)(O)O)[C@@H](O)[C@H]1O (single isomer, unassigned) [Example 57a] | > 1 |
| Cn1c(=O)ccn([C@@H]2O[C@H](CO[C@@H](C(=O)O)P(=O)(O)O)[C@@H](O)[C@H]2O)c1=O (single isomer, unassigned) [Example 60] | > 1 |
| Cn1c(=O)ccn([C@@H]2O[C@H](CO[C@H](C(=O)O)P(=O)(O)O)[C@@H](O)[C@H]2O)c1=O (single isomer, unassigned) [Example 60a] | > 1 |
| CCOC(=O)[C@@H](OC[C@H]1C[C@@H](n2cnc3cccc(Cl)c3c2=O)[C@H](O)[C@@H]1O)P(=O)(O)O (single isomer, unassigned) [Example 70a] | > 1 |
| CCOC(=O)[C@@H](OC[C@H]1C[C@@H](n2cnc3cccc(Br)c3c2=O)[C@H](O)[C@@H]1O)P(=O)(O)O (single isomer, unassigned) [Example 72a] | > 1 |
| CCOC(=O)[C@@H](OC[C@H]1C[C@@H](n2cnc3cccc(C#N)c3c2=O)[C@H](O)[C@@H]1O)P(=O)(O)O (single isomer, unassigned) [Example 73a] | > 1 |
| CCOC(=O)C(OC[C@H]1O[C@@H](n2cnc3cc(Cl)c(Cl)cc32)[C@H](O)[C@@H]1O)P(=O)(O)O (single isomer, unassigned) [Example 81] | > 1 |
| CCOC(=O)C(OC[C@H]1O[C@@H](n2cnc3cc(Cl)c(Cl)cc32)[C@H](O)[C@@H]1O)P(=O)(O)O (single isomer, unassigned) [Example 81a] | > 1 |
| CCOC(=O)C(OC[C@H]1O[C@@H](n2cnc3ccc(Cl)nc32)[C@H](O)[C@@H]1O)P(=O)(O)O (single isomer, unassigned) [Example 87a] | > 1 |
| Nc1ncnc2c1ncn2[C@@H]1O[C@H](COC(C(=O)O)C(=O)O)[C@@H](O)[C@H]1O [Example 8, 2-(((2R,3S,4R,5R)-5-(6-amino-9H-purin-9-yl)-3,4-dihydroxytetrahydrofuran-2-yl)methoxy)malonic acid] | > 1 |
| CNC(=O)C(OC[C@H]1O[C@@H](n2ccc(=O)n(C)c2=O)[C@H](O)[C@@H]1O)P(=O)(O)O (stereo partly drawn) [Example 31, (1-(((2R,3S,4R,5R)-3,4-dihydroxy-5-(3-methyl-2,4-dioxo-3,4-dihydropyrimidin-1(2H)-yl)tetrahydrofuran-2-yl)methoxy)-2-(methylamino)-2-oxoethyl)phosphonic Acid] | > 1 |
| CCNC(=O)C(OC[C@H]1O[C@@H](n2ccc(=O)n(C)c2=O)[C@H](O)[C@@H]1O)P(=O)(O)O (stereo partly drawn) [Example 32, (1-(((2R,3S,4R,5R)-3,4-dihydroxy-5-(3-methyl-2,4-dioxo-3,4-dihydropyrimidin-1(2H)-yl)tetrahydrofuran-2-yl)methoxy)-2-(ethylamino)-2-oxoethyl)phosphonic Acid] | > 1 |
| Nc1ncnc2c1ncn2[C@@H]1O[C@H](COC(C(=O)NO)P(=O)(O)O)[C@@H](O)[C@H]1O (stereo partly drawn) [Example 35, (1-(((2R,3S,4R,5R)-5-(6-amino-9H-purin-9-yl)-3,4-dihydroxytetrahydrofuran-2-yl)methoxy)-2-(hydroxyamino)-2-oxoethyl)phosphonic Acid] | > 1 |
| COC(=O)C(SC[C@H]1O[C@@H](n2cnc3c(N)ncnc32)[C@H](O)[C@@H]1O)P(=O)(O)O (stereo partly drawn) [Example 56, (1-((((2S,3S,4R,5R)-5-(6-amino-9H-purin-9-yl)-3,4-dihydroxytetrahydrofuran-2-yl)methyl)thio)-2-methoxy-2-oxoethyl)phosphonic Acid] | > 1 |

Continued, values first:

| IC50 [µM] | Compound |
| --- | --- |
| > 1 | CS(=O)(=O)C(OC[C@H]1O[C@@H](n2cnc3c(N)nc(Cl)nc32)[C@H](O)[C@@H]1O)P(=O)(O)O (single isomer, unassigned) [Example 10a] |
| > 1 | CCCS(=O)(=O)[C@@H](OC[C@H]1O[C@@H](n2cnc3c(N)nc(Cl)nc32)[C@H](O)[C@@H]1O)P(=O)(O)O (single isomer, unassigned) [Example 12a] |
| > 1 | CC(C)CS(=O)(=O)[C@@H](OC[C@H]1O[C@@H](n2cnc3c(N)nc(Cl)nc32)[C@H](O)[C@@H]1O)P(=O)(O)O (single isomer, unassigned) [Example 13a] |
| > 1 | CCOC(=O)[C@@H](OC[C@H]1O[C@@H](n2ccc(=O)n(C)c2=O)[C@H](O)[C@@H]1O)P(=O)(O)O (single isomer, unassigned) [Example 30a] |
| > 1 | CCOC(=O)[C@@H](OC[C@@H]1O[C@H](n2cnc3c(N)nc(C)nc32)[C@@H](O)[C@H]1O)P(=O)(O)O (single isomer, unassigned) [Example 37a] |
| < 0.1 | CCOC(=O)[C@@H](OC[C@H]1O[C@@H](n2cnc3c(N)nc(-c4ccccc4)nc32)[C@H](O)[C@@H]1O)P(=O)(O)O (single isomer, unassigned) [Example 40a] |
| > 1 | CCOC(=O)[C@@H](OC[C@H]1O[C@@H](n2cnc3c(N)nc(-c4cc(F)cc(F)c4)nc32)[C@H](O)[C@@H]1O)P(=O)(O)O (single isomer, unassigned) [Example 41a] |
| > 1 | CCOC(=O)[C@@H](OC[C@H]1O[C@@H](n2cnc3c(N)nc(C(F)(F)F)nc32)[C@H](O)[C@@H]1O)P(=O)(O)O (single isomer, unassigned) [Example 42a] |
| > 1 | CCOC(=O)[C@@H](OC[C@H]1O[C@@H](n2cnc3c(N)nc(CC(C)C)nc32)[C@H](O)[C@@H]1O)P(=O)(O)O (single isomer, unassigned) [Example 46a] |
| > 1 | CCOC(=O)[C@@H](OC[C@H]1O[C@@H](n2cnc3c(N)nc(C4CC4)nc32)[C@H](O)[C@@H]1O)P(=O)(O)O (single isomer, unassigned) [Example 50a] |
| > 1 | CCOC(=O)[C@@H](OC[C@H]1O[C@@H](n2cnc3c(N)nc(C4NCCO4)nc32)[C@H](O)[C@@H]1O)P(=O)(O)O (single isomer, unassigned) [Example 51b] |
| > 1 | CC(C)(C)OC(=O)[C@H](OC[C@H]1O[C@@H](n2cnc3c(N)nc(CN)nc32)[C@H](O)[C@@H]1O)P(=O)(O)O (single isomer, unassigned) [Example 55] |
| > 1 | CC(C)(C)OC(=O)[C@@H](OC[C@H]1O[C@@H](n2cnc3c(N)nc(CN)nc32)[C@H](O)[C@@H]1O)P(=O)(O)O (single isomer, unassigned) [Example 55a] |
| < 0.1 | Nc1nc(Cl)nc2c1ncn2[C@@H]1O[C@H](COC(C(=O)O)P(=O)(O)O)[C@@H](O)[C@H]1O (single isomer, unassigned) [Example 61a] |
| 0.1 to 1 | CCOC(=O)[C@@](CC(=O)O)(OC[C@H]1O[C@@H](n2cnc3c(N)nc(F)nc32)[C@H](O)[C@@H]1O)P(=O)(O)O (single isomer, unassigned) [Example 79a] |
